Assays:
[1] = target: T1, Transient receptor potential cation channel subfamily A member 1 (Homo sapiens, UniProt O75762); test: Agonist activity at TRPA1 (unknown origin) by calcium imaging assay
[2] = target: T1, Transient receptor potential cation channel subfamily A member 1; test: Agonist activity at TRPA1 (unknown origin) by calcium imaging assay relative to allyl isothiocyanate; design: concentration or dose not given beside the values; conditions: filed as agonist

T1 sequence (O75762 whole entry): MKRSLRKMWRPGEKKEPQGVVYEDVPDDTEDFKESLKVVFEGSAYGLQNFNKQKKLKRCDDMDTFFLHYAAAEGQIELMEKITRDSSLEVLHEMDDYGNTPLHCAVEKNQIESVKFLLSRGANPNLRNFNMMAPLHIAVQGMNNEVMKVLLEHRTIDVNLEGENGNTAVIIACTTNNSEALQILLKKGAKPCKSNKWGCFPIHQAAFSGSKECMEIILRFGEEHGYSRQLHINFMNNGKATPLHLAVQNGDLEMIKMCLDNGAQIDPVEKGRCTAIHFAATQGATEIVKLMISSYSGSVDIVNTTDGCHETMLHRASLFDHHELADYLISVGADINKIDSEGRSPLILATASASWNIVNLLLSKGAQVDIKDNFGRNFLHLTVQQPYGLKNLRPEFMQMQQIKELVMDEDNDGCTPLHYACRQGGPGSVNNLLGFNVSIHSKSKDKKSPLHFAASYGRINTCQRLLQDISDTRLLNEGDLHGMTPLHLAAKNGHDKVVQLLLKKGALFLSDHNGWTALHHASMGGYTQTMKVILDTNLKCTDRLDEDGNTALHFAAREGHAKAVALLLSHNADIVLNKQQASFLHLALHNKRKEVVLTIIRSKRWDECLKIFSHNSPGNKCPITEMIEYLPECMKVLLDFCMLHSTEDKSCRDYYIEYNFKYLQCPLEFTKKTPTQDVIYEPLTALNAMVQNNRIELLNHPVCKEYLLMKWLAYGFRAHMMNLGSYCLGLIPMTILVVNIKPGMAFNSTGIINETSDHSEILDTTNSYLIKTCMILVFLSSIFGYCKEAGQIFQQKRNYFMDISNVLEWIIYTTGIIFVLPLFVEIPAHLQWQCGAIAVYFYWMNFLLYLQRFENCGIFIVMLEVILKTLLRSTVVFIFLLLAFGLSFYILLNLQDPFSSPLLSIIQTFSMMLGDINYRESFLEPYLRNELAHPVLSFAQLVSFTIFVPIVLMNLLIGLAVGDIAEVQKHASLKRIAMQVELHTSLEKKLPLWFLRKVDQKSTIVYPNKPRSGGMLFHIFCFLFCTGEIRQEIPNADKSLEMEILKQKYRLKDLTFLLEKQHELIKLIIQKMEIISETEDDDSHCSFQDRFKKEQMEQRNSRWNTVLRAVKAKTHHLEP

SMILES	EC50 [1] [µM]	Activity [2] [%]
C/C=C/c1ccc(O)c(OC)c1	149	139
CCc1ccc(O)c(OC)c1	101	74
Cc1cccc(O)c1C	86	82
Cc1ccc(C(C)C)c(O)c1		140
C=CCc1ccc(O)c(OC)c1 [EUGENOL]	116	122
Cc1ccc(O)c(O)c1	11.7	107
Cc1cccc(O)c1O	2.83	151
CCc1ccc(O)c(O)c1	8.69	99
c1ccc2[nH]ccc2c1 [INDOLE]	75.2	111
COc1cc(C(=O)C(O)CO)ccc1O (stereo not drawn)		63
COc1cc(O)c(CC=C(C)C)c2c1C(=O)CC(c1ccc(O)cc1)O2 (stereo not drawn)		90
Oc1ccccc1Cl [2-CHLOROPHENOL]	501	54
C=Cc1ccc(O)c(OC)c1	82.8	50

From ChEMBL document CHEMBL4673264, “Discovery of natural TRPA1 activators through pharmacophore-based virtual screening and a biological assay” (Bioorg Med Chem Lett, 2021)
